“Also recorded” adds a separate entry of the source.
Legend:
[1] = target: T1, RhlR (Pseudomonas aeruginosa, UniProt P54292); test: E. coli RhlR reporter antagonism assay vs 10 μM BHL (JLD271/pJN105R2/pSC11-rhlI*); type: cell-based, P. aeruginosa; conditions: for inhibition at 10 µM: read-out: % inhibition (10 μM), compound at 10 μM in the presence of 10 μM BHL; for inhibition at 10 µM / inhibition at 1000 µM: negative = agonism stronger than 10 μM BHL alone; for inhibition at 1000 µM: read-out: % inhibition (1 mM), compound at 1 mM in the presence of 10 μM BHL
T1 construct: expressed in transfected cells; host or cells: E. coli JLD271 (ΔsdiA) with pJN105R2 (arabinose-induced) and pSC11-rhlI*

[2] = target: T1, RhlR; test: P. aeruginosa RhlR reporter agonism assay (PAO-JP2/prhlI-LVAgfp); type: cell-based; conditions: for Emax: read-out: Maximum Activation (%)
[3] = target: T1, RhlR; test: P. aeruginosa RhlR reporter antagonism assay vs 10 μM BHL (PAO-JP2/prhlI-LVAgfp); type: cell-based
Description: FIGS. 10A and B illustrate exemplary dose-response curves for RhlR antagonism in the E. coli JLD271/pJN105R2/pSC11-rhlI* reporter strain vs. 10 μM BHL (FIG. 10A) and in the P. aeruginosa PAO-JP2/prhlI-LVAgfp reporter strain vs. 10 μM BHL (FIG. 10B).
To evaluate the RhlR-modulatory activities of selected compounds in P. aeruginosa, the ΔlasIrhlI strain PAO-JP2 harboring plasmid prhlI-LVAgfp was used as previously reported.^38 Briefly, a subculture was prepared by diluting an overnight culture 1:100 in fresh LB and was grown to OD600=0.3. […] Subculture was treated with 100 nM OdDHL (to induce native expression of RhlR) by adding the appropriate amount of OdDHL stock solution in DMSO. The subculture was then dispensed ([…] aliquots) into each synthetic compound-containing well of the microtiter plate.
Plates were incubated at 37° C. for 6 h, and GFP production was monitored by using a Synergy 2 plate reader (λex=500 nm, λem=540 nm; BioTek, Winooski, Vt.) and quantified with Gen5 1.05 software (BioTek). The final OD600 for each well was measured to normalize GFP production to cell density. All synthetic compounds were tested in triplicate, and three separate trials were performed with unique cultures. Agonism dose-response analyses were performed by testing compounds over a range of concentrations with the RhlR reporter.

T1 sequence (P54292 whole entry): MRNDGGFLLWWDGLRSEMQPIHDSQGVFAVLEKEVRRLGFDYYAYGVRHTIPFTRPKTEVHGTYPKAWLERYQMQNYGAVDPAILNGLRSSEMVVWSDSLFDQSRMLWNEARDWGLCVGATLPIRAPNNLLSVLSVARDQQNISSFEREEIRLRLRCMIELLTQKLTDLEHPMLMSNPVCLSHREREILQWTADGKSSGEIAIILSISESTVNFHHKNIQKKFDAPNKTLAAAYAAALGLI

Structure (SMILES)	inhibition at 10 µM [1] [%]	inhibition at 1000 µM [1] [%]	EC50 [2] [µM]	Emax [2] [%]	RhlR antagonist activity in words ([1]; E. coli reporter vs 10 μM BHL)	Maximum Inhibition (%) ([1]; E. coli reporter, relative to activation of 10 μM BHL alone)	concentration blocking native ligand activity by 50%, relative to EC50 of native ligand ([3]; P. aeruginosa)	RhlR antagonist activity in words ([3]; P. aeruginosa reporter vs 10 μM BHL)	IC50 ([3]; P. aeruginosa reporter vs 10 μM BHL, read-out: IC50 for RhlR inhibition) [µM]	Maximum Inhibition (%) ([3]; P. aeruginosa reporter, relative to activation of 10 μM BHL alone)
O=C(N[C@H]1CCCC1=O)C1CCC1 [RN12]	-39	-98	7.35	96	–	–	–	–	–	–
CC(C)CC(=O)N[C@H]1CCSC1=O [RN37]	-59	-81	2.58	91	–	–	–	–	–	–
CC(C)CC(=O)N[C@H]1CCCC1=O [RN36]	-35	-122	11.2	96	–	–	–	–	–	–
O=C(COc1ccc(I)cc1)N[C@H]1CCSC1=O [RN22]	28	–	–	–	potent antagonist activity; also recorded: activity comparable to previously identified compound E22	81	less than 4 fold	maintained its strong inhibitory profile	31	85
